Source: US20250171434A1, “SEC61 INHIBITORS AND USE THEREOF” (KEZAR LIFE SCIENCES, INC., priority 2022, published 2025)

Assays:
[1] = Liver Microsome Stability Assay, human; type: in vitro ADME; details: human liver microsomes 1.0 mg/mL, 1.0 uM compound, 37° C., 1 mM NADPH
Procedure: (§1) Stability of a compound was assessed in the presence of liver microsomes from various sources—mouse, rat, monkey and human liver microsomes. 1.0 uM compound, 0.4% DMSO in 0.1 M Potassium Phosphate with 1.0 mg/mL liver microsomes, were incubated at 37° C. with or without 1 mM NADPH. The samples were quenched at 0, and 30 minutes.

[2] = Liver Microsome Stability Assay, mouse; type: in vitro ADME; details: mouse liver microsomes 1.0 mg/mL, 1.0 uM compound, 37° C., 1 mM NADPH
Procedure: as §1

[3] = tested on: PD1-ss+10aa/Gaussia Luciferase; assay: Dox-Induced PD1-ss-Gluc Assay; type: cell-based; details: Flp-In 293 T-REx cells, 24 hours with doxycycline; Table 1; read-out: 24 hr Dox Inducible PD1ssGluc 293FRT/TO: Mean IC50
Description: Flp-In 293 T-REx™ cells were transfected with pcDNA™5/FRT/TO plasmid inserted with cDNA encoding Gaussia Luciferase fused to the 3′ end of cDNA encoding PD1 signal sequence plus 10 amino acids (N-[…]-C) (SEQ ID NO: 1). Transfected cells were selected for resistance to the selectable markers Hygromycin and Blasticidin to create a stable cell line that contained the PD1-ss+10aa/Gaussia Luciferase cDNA insert whose expression was regulated under the T-REx™ system. The day before assay, cells were trypsinized and plated in 384-well tissue culture plates. The next day, compound dilutions in DMSO/media containing doxycycline were added to the wells and incubated at 37° C., 5% CO2.
(§2) For chemical structures that include one or more stereoisomers, but are illustrated without indicating stereochemistry, the assay data refers to a mixture of stereoisomers.

[4] = tested on: CD47(ss + 10)Gluc; assay: Dox-Induced CD47-ss-Gluc Assay; type: cell-based; details: Flp-In 293 T-REx cells, 24 hours with doxycycline; Table 1; read-out: 24 hr Dox Inducible CD47(ss + 10)Gluc 293FRT/TO: Mean IC50
[5] = Liver Microsome Stability Assay, rat; type: in vitro ADME; details: rat liver microsomes 1.0 mg/mL, 1.0 uM compound, 37° C., 1 mM NADPH
Procedure: as §1

[6] = tested on: IL6R-ss+10aa/Gaussia Luciferase; assay: Dox-induced IL-6R-ss-Gluc Assay; type: cell-based; details: Table 1; for IC50: Flp-In 293 T-REx cells, 24 hours with doxycycline, read-out: 24hr Dox Inducible IL6R(ss + 10)Gluc 293FRT/TO: Mean IC50; for 24hr Dox Inducible IL6R(ss + 10)Gluc 293FRT/TO: IL6R/PD1: ratio of IC50s IL6R/PD1
Description: Flp-In 293 T-REx™ cells were transfected with pcDNATM5/FRT/TO plasmid inserted with cDNA encoding Gaussia Luciferase fused to the 3′ end of cDNA encoding IL6R signal sequence plus 10 amino acids (N-[…]-C). Transfected cells were selected for resistance to the selectable markers Hygromycin and Blasticidin to create a stable cell line that contained the IL6R-ss+10aa/Gaussia Luciferase cDNA insert whose expression was regulated under the T-REx™ system. The day before assay, cells were trypsinized and plated in 384-well tissue culture plates. The next day, compound dilutions in DMSO/media containing doxycycline were added to the wells and incubated at 37° C., 5% CO2.
as §2

[7] = tested on: multiple myeloma cell line U266B1; assay: U266 Cell Viability Assay; type: cell-based; details: Homo sapiens, U-266; U266B1 cells, 48 hours, Celltiter-Glo; read-out: 48 hr U266 Viability Celltiter-Glo: Mean EC50
Procedure: (§3) The human multiple myeloma cell line U266B1 was cultured in RPMI 1640 media supplemented with 10% fetal bovine serum, 2 mM Glutamine, and 1× Penicillin/Streptomycin. Cells were plated in 384-well tissue culture plates and treated with compound dilutions in DMSO/media. Plates were incubated at 37° C., 5% CO2 for 48 hours. After 48 hours, Celltiter-Glo® (Promega) was added to each well and luciferase signal was quantified using Tecan Infinite M1000 Pro for cell viability determination.
as §2

[8] = tested on: multiple myeloma cell line NCI-H929; assay: H929 Cell Viability Assay; type: cell-based, human; details: NCI-H929 cells, 48 hours, Celltiter-Glo; for EC50: Homo sapiens, read-out: 48 hr H929 Viability Celltiter-Glo: Mean EC50
Procedure: as §3, with “NCI-H929” for “U266B1”, “cultured in Advanced RPMI 1640 media (Gibco®) supplemented with 6% fetal bovine serum, 2 mM Glutamine, and 1× Penicillin/Streptomycin. On the day of assay, cells were resuspended” for “cultured”, “Penicillin/Streptomycin and” for “Penicillin/Streptomycin. Cells were”
as §2

[9] = Liver Microsome Stability Assay, monkey; type: in vitro ADME; details: monkey liver microsomes 1.0 mg/mL, 1.0 uM compound, 37° C., 1 mM NADPH
Procedure: as §1

[10] = tested on: IL-2-FL/Gaussia Luciferase; assay: Dox Inducible IL2-FL-Gluc Assay; type: cell-based; details: Table 1; for IC50: Flp-In 293 T-REx cells, 24 hours with doxycycline, read-out: 24 hr Dox Inducible IL2FLGluc 293FRT/TO: Mean IC50; for 24 hr Dox Inducible IL2FLGluc 293FRT/TO: IL2/PD1: ratio of IC50s IL2/PD1
Description: Flp-In 293 T-REx™ cells were transfected with pcDNA™5/FRT/TO plasmid inserted with cDNA encoding Gaussia Luciferase fused to the 3′ end of cDNA encoding full length IL-2 (amino acids 1-153). Transfected cells were selected for resistance to the selectable markers Hygromycin and Blasticidin to create a stable cell line that contained the IL-2-FL/Gaussia Luciferase cDNA insert whose expression was regulated under the T-REx™ system. The day before assay, cells were trypsinized and plated in 384-well tissue culture plates. The next day, compound dilutions in DMSO/media containing doxycycline were added to the wells and incubated at 37° C., 5% CO2.
as §2

Row | SMILES | Liver Microsome Stability (Multiple Species): Human - % Remaining after 30 min w/ NADPH (%) [1] [%] | Liver Microsome Stability (Multiple Species): Mouse - % Remaining after 30 min w/ NADPH (%) [2] [%] | IC50 [3] [µM] | IC50 [4] [µM] | Liver Microsome Stability (Multiple Species): Rat - % Remaining after 30 min w/ NADPH (%) [5] [%] | IC50 [6] [µM] | EC50 [7] [µM] | 48 hr H929 Viability Celltiter-Glo: Mean EC50 (nM) [8] | Liver Microsome Stability (Multiple Species): Monkey - % Remaining after 30 min w/ NADPH (%) [9] [%] | IC50 [10] [µM] | EC50 [8] [µM] | 24hr Dox Inducible IL6R(ss + 10)Gluc 293FRT/TO: IL6R/PD1 [6] | 24 hr Dox Inducible IL2FLGluc 293FRT/TO: IL2/PD1 [10]
1 | [2H]C([2H])(c1ccnc(F)c1)n1cc(OC(F)F)cc1C(=O)Nc1nc(/C=C/c2ncn(C3CC3)c2Cl)cs1 [Compound A16, (E)-N-(4-(2-(5-chloro-1-cyclopropyl-1H-imidazol-4-yl)vinyl)thiazol-2-yl)-4-(difluoromethoxy)-1-((2-fluoropyridin-4-yl)methyl-d2)-1H-pyrrole-2-carboxamide] | 83 | 81 | 0.006 | 2.8 | 56 | 2.15 | > 25 |  | 58 | 2.91 | > 25 | 339 | 460
2 | O=C(Nc1nc(/C=C/c2ncn(C3CC3)c2Cl)cs1)c1cc(O)cn1Cc1ccnc(F)c1 [Compound A18, (E)-N-(4-(2-(5-chloro-1-cyclopropyl-1H-imidazol-4-yl)vinyl)thiazol-2-yl)-1-((2-fluoropyridin-4-yl)methyl)-4-hydroxy-1H-pyrrole-2-carboxamide] | 1 | 33 | 0.295 | 6.41 | 10 | 5.53 | > 25 |  | 2 | 7 | 24.7 | 19 | 24
3 | COc1cc(C(=O)Nc2nc(/C=C/c3ncn(C4CC4)c3Cl)cs2)n(Cc2ccnc(F)c2F)c1 [Compound A20] | 52 | 74 | 0.031 | 5.01 | 41 | 3.76 | > 25 |  | 28 | > 25 | > 25 | 123 | >810
4 | COc1cc(C(=O)Nc2nc(/C=C/c3ncn(C(C)C)c3Cl)c(CO)s2)n(Cc2ccnc(F)c2F)c1 [Compound A21] | 1 | 51 | 0.238 | 5.87 | 59 | > 25 | > 25 |  | <1 | > 25 | > 25 | >105 | >110

Continued, in another order:

Row | Liver Microsome Stability (Multiple Species): Human - % Remaining after 30 min w/ NADPH (%) [1] [%] | Liver Microsome Stability (Multiple Species): Mouse - % Remaining after 30 min w/ NADPH (%) [2] [%] | IC50 [3] [µM] | IC50 [4] [µM] | Liver Microsome Stability (Multiple Species): Rat - % Remaining after 30 min w/ NADPH (%) [5] [%] | IC50 [6] [µM] | EC50 [7] [µM] | 48 hr H929 Viability Celltiter-Glo: Mean EC50 (nM) [8] | Liver Microsome Stability (Multiple Species): Monkey - % Remaining after 30 min w/ NADPH (%) [9] [%] | IC50 [10] [µM] | EC50 [8] [µM] | SMILES | 24hr Dox Inducible IL6R(ss + 10)Gluc 293FRT/TO: IL6R/PD1 [6] | 24 hr Dox Inducible IL2FLGluc 293FRT/TO: IL2/PD1 [10]
5 | 73 | 100 | 0.006 | 3.23 | 55 | 2.07 | > 25 | I.A | 57 | 2.94 |  | O=C(Nc1nc(/C=C/c2ncn(C3CC3)c2Cl)cs1)c1cc(OC(F)F)cn1Cc1ccnc(F)c1 [Compound A15, (E)-N-(4-(2-(5-chloro-1-cyclopropyl-1H-imidazol-4-yl)vinyl)thiazol-2-yl)-4-(difluoromethoxy)-1-((2-fluoropyridin-4-yl)methyl)-1H-pyrrole-2-carboxamide] | 345 | 490
6 | 26 | 72 | 0.009 | 2.74 | 2 | 2.1 | > 25 | I.A | 17 | 3.02 |  | CCOc1cc(C(=O)Nc2nc(/C=C/c3ncn(C4CC4)c3Cl)cs2)n(Cc2ccnc(F)c2)c1 [Compound A17, (E)-N-(4-(2-(5-chloro-1-cyclopropyl-1H-imidazol-4-yl)vinyl)thiazol-2-yl)-4-ethoxy-1-((2-fluoropyridin-4-yl)methyl)-1H-pyrrole-2-carboxamide] | 240 | 340
7 | 4 | 65 | 0.01 | 4.35 | 23 | 2.91 | > 25 |  | 51 | 3.66 | > 25 | O=C(Nc1nc(/C=C/c2ncn(C3CC3)c2Cl)cs1)c1cc(OCF)cn1Cc1ccnc(F)c1 [Compound A19, (E)-N-(4-(2-(5-chloro-1-cyclopropyl-1H-imidazol-4-yl)vinyl)thiazol-2-yl)-4-(fluoromethoxy)-1-((2-fluoropyridin-4-yl)methyl)-1H-pyrrole-2-carboxamide] | 287 | 360
